# Reference: US20100112561A1, “FLUORESCENT NUCLEOSIDE ANALOGUES” (priority 2006, published 2010)
# Tests used:
# [1] = tested on: E. coli KY895 with pDIM-tDmdNK and TOP10 with pBAD-tDmdNK; experiment: fNA accumulation by fluorescence microscopy, bacteria expressing DmdNK; type: cell-based; details: plasmid-encoded exogenous DmdNK, both strains, FIG. 8
# Text: FIG. 8 illustrates the fluorescence microscopy of E. coli KY895 with pDIM-tDmdNK (left) and TOP10 with pBAD-tDmdNK (right) in the presence of 1 (100× magnification; excitation: Hg-lamp at 325 nm). Noticeable in the two images of FIG. 8 is the highly variable fluorescence intensity in the E. coli KY895/pDIM sample, caused by disproportionate expression levels of the lac-promoter system. On the contrary, the arabinose-controlled pBAD system in E. coli TOP10 facilitates steadier kinase expression levels, resulting in a more uniform fluorescence signal.
# [2] = tested on: E. coli expressing DmdNK from pDIM, pBAD or pET vectors; experiment: flow cytometry (FACS) of E. coli overexpressing DmdNK; type: cell-based; details: pDIM vector in E. coli KY895, FIG. 9
# Protocol: In a typical flow cytometry experiment, bacterial cultures are grown to mid-log phase and protein expression is induced for 4 h, followed by the addition of the fN or fNA to the culture broth. Cells are incubated for another 2 h prior to centrifugation and three wash-cycles with PBS buffer to reduce the fluorescence background. Cultures are then analyzed on a Becton Dickinson FACSVantage SE, equipped with a UV laser.
# Several experiments were conducted to validate the design for a FACS-based high-throughput screening system for engineered dNKs. A first set of experiments addressed three main questions: a) what is an appropriate host/expression system for kinases in conjunction with fNAs (FIG. 9), b) are the fluorescent properties of the above-described fNAs sufficient for FACS, and c) what is the dynamic range of this screening system? […] In contrast, both the pET and pBAD system yield populations with a more significant portion of “positives”, cells with 10 to 20-fold higher fluorescence than background.
# [3] = target: T1, human 2′-deoxycytidine kinase (dCK) (Homo sapiens, UniProt P27707); experiment: spectrophotometric coupled-enzyme kinase assay, dCK; type: biochemical; details: FIG. 10A
# T1 construct: made in house; host or cells: E. coli, pET-14b (Novagen)
# T1 sequence (P27707 whole entry): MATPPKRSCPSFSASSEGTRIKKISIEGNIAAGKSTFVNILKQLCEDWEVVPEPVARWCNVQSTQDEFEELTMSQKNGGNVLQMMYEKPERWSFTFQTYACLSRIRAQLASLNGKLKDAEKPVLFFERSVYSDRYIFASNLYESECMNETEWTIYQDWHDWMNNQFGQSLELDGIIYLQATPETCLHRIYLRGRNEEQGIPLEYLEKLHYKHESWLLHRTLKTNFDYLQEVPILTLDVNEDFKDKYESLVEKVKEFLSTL
# Text: (§1) To investigate the kinetic properties of the above-described fNAs in vitro, a pET-based protein overexpression system was established for the production and purification of milligram quantities of individual dNKs. The genes for human 2′-deoxycytidine kinase (dCK) and fruitfly dNK (DmdNK), as well as the thymidine kinase from the bacterium Thermotoga maritime (TmTK) were subcloned into pET-14b (Novagen), an IPTG-inducible protein overexpression system that also introduces a poly-His tag at the target protein's amino terminus. […]
# A quantitative measurement of individual enzymes' substrate specificity is possible via the determination of the kinetic parameters KM and kcat. […]
# (§2) Experimentally, the kinase-catalyzed phosphotransfer reaction was monitored at 37° C. via a spectrophotometric, couple-enzyme assay (as described in Munch-Petersen, B., Knecht, W., Lenz, C., Sondergaard, L. and Piskur, J. (2000) functional expression of a multisubstrate deoxyribonucleoside kinase from Drosophila melanogaster and its C-terminal deletion mutants. J Bio chem, 275, 6673-6679; Schelling, P., Folkers, G. and Schapozza, L. (2001) A spectrophotometric assay for quantitative determination of kcat of herpes simplex virus type 1 thymidine kinase substrates. Anal Biochem, 295, 82-87, which are hereby incorporated by reference herein). […] The consumption of NADH can be monitored spectrophotometrically at 340 nm. […]
# [4] = tested on: E. coli TOP10 and E. coli KY895; experiment: fNA uptake by fluorescence microscopy, strains without exogenous kinase; type: cell-based; details: both strains, no exogenous type-I kinase
# Protocol: To validate the accumulation of the fluorescent nucleotides inside bacterial cells, a series of fNA-uptake experiments was conducted in two E. coli strains. The E. coli TOP10 (Invitrogen) carries a native type-II thymidine kinase while E. coli KY895 is a thymidine kinase-deficient laboratory strain.
# [5] = target: T2, 2′-deoxyribonucleoside kinase from Drosophila melanogaster (DmdNK) (Drosophila melanogaster, UniProt Q9XZT6); experiment: spectrophotometric coupled-enzyme kinase assay, DmdNK; type: biochemical; details: wild type DmdNK, kcat/KM data FIG. 10A/11A, agrees with FACS FIG. 11B
# T2 construct: made in house; host or cells: E. coli, pET-14b (Novagen)
# T2 sequence (Q9XZT6 1-250): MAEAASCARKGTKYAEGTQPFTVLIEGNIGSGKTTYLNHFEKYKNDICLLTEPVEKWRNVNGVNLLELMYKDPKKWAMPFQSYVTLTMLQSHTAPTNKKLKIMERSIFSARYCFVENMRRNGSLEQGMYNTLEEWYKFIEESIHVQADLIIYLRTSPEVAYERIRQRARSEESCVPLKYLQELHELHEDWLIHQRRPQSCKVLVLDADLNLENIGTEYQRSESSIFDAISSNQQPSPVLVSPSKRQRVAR
# Text: To investigate the kinetic properties of the above-described fNAs in vitro, a pET-based protein overexpression system was established for the production and purification of milligram quantities of individual dNKs. The genes for human 2′-deoxycytidine kinase (dCK) and fruitfly dNK (DmdNK), as well as the thymidine kinase from the bacterium Thermotoga maritime (TmTK) were subcloned into pET-14b (Novagen), an IPTG-inducible protein overexpression system that also introduces a poly-His tag at the target protein's amino terminus. Following protein overexpression, the tag enables one-step purification of the corresponding proteins on Ni-affinity resin, yielding enzyme of >95% purity as determined by SDS-PAGE. This protein overexpression system was successfully applied for the listed wild type kinases above, as well as for isolating engineered enzymes.
# A quantitative measurement of individual enzymes' substrate specificity is possible via the determination of the kinetic parameters KM and kcat. Consistent with the literature, each kinase will be described by its relative activity for a fNA in comparison to its corresponding NA and thymidine: kcat(fNA)/kcat(NA), as well as by its relative catalytic efficiency: kcat/KM(fNA)/kcat/KM(NA). […]
# as §2
# [6] = target: T3, thymidine kinase from Thermotoga maritima (TmTK) (Thermotoga maritima, UniProt Q9WYN2); experiment: kinetic experiments with type-II kinases; type: biochemical
# T3 construct: made in house; host or cells: E. coli, pET-14b (Novagen)
# T3 sequence (Q9WYN2 whole entry): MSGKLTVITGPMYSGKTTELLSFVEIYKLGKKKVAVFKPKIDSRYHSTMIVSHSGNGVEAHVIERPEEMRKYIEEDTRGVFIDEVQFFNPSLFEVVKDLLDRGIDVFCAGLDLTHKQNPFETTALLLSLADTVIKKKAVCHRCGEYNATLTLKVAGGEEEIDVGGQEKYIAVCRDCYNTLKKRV
# Text: as §1, §2
substrate activity / phosphorylation by DmdNK [5],SMILES,accumulation of fluorescent probe inside cells [1],fluorescent cell population [2],substrate activity / phosphorylation by dCK [3],fluorescence signal in cells [4],phosphorylation by type-II kinases [6]
only background phosphorylation,"Cc1cc2cn(C3CC(N=[N+]=[N-])C(CO)O3)c(=O)nc2o1 (centres unmarked) [compound 16, 3-(4-azido-5-(hydroxymethyl)-tetrahydrofuran-2-yl)-6-methylfuro[2,3-d]pyrimidin-2(3H)-one]",,,,,
no detectable activity,"Cc1cc2cn(C3CCC(CO)O3)c(=O)nc2[nH]1 (centres unmarked) [compound 25, 3-(5-(hydroxymethyl)-tetrahydrofuran-2-yl)-6-methyl-3H-pyrrolo[2,3-d]pyrimidin-2(7H)-one]",,,,,

SMILES,substrate activity / phosphorylation by DmdNK [5],accumulation of fluorescent probe inside cells [1],fluorescent cell population [2],substrate activity / phosphorylation by dCK [3],fluorescence signal in cells [4],phosphorylation by type-II kinases [6]
"Cc1cc2cn([C@H]3C[C@H](O)[C@@H](CO)O3)c(=O)nc2o1 [compound 1, 6-methyl-3-(β-D-2′-deoxyribofuranosyl)furano-[2,3-d]pyrimidin-2-one]",strong activity and good substrate and good,accumulation of the fluorescent probe inside both strains,small subpopulation with fluorescence above background,no activity,no fluorescence signal beyond the cellular autofluorescence,no detectable phosphorylation
